Source: patent publication US8063012B2, “Neuroprotective peptide inhibitors of AP-1 signaling and uses therefor” (Phylogica Limited, priority 2006, dated 2011)
Non-standard residues stand in square brackets, D forms with d. Residues, ends and D or L forms follow the SMILES beside them.

Tests used:
[1] = system: primary cortical neuronal cultures; experiment: Glutamate excitotoxicity in primary cortical neuronal cultures, neuronal viability by MTS assay; type: cell-based, rat; conditions: Sprague-Dawley, rat, 18 h
Experimental: Neurons were resuspended in Neurobasal (NB; Invitrogen) containing 2% B27 supplement (B27; Invitrogen). Before seeding, culture vessels comprising either a 96-well plastic plate or 24-well plastic plate with 13 mm glass coverslips (ProSciTech, Australia), were coated with poly-D-lysine (50 μg/mL; 70-150K; Sigma) and incubated overnight at room temperature. […] Neurons were plated to obtain approximately 10,000 viable neurons for each well of a 96-well plate, or 200,000 viable neurons per well of a 24-well plate, on day in vitro (DIV) […]. […] On DIV 4, one third of the culture medium was removed and replaced with fresh NB/2% B27 containing the mitotic inhibitor, cytosine arabinofuranoside (Sigma) at 1 μM concentration. On DIV 8, one half of the culture medium was replaced with NB/2% B27.
To induce glutamate excitotoxicity in the cortical neuronal cultures (96-well plate format), 50 μl of conditioned media containing 200 μM glutamate was added to culture wells containing 50 μl conditioned media (100 μM final glutamate concentration). Cultures were incubated at 37° C. in a CO2 incubator for 5 minutes, after which time the media was replaced with 100 μl of 50% NB/2% N2 and 50% balance salt solution (NB/N2:BSS).
Untreated and glutamate-treated control samples received media additions with and without glutamate respectively.
Eighteen hours after glutamate exposure, neuronal cultures were examined by light microscopy for qualitative assessment of neuronal damage. Neuronal viability was quantitatively measured by 3-(4,5,dimethyliazol-2-yl)-5-(3-carboxymethoxy-phenyl)-2-(4-sulfophenyl)-2H-tetrazolium salt (MTS) assay (Promega, Australia). The MTS assay measures the mitochondrial conversion of the tetrazolium salt to a water-soluble brown formazan salt, which is detected spectrophotometrically at 495 nm. MTS absorbance data was converted to reflect proportional cell viability relative to both the untreated and glutamate treated controls. […] All assays were performed with quadruplicate sister neuronal cultures repeated a minimum of four times independently.

[2] = in vitro; type: in vitro ADME; conditions: human, plasma
Experimental: A stock solution of 200 μg/ml of peptide in PBS was diluted into 1.5 ml of human plasma or PBS to achieve a final concentration of 10 μg/ml. Of this solution, 50 μl was then dispensed into 200 μl Max Recovery tubes (Axygen Scientific) in triplicate for each time point needed in the study. The tubes were incubated at 37° C. and at the appropriate time point, they were removed from the incubator and 150 μl of extraction solution (75% acetonitrile/25% water+2% formic acid) was added. The tubes were vortexed for 15 sec and then centrifuged at 11,000 RPM for 5 mins at 4° C. Then, 100 μl of the supernatant was transferred into HPLC vials for analysis.
A fixed mobile phase was used so that all of the different charged species of peptide would elute at the same time, allowing a mass measurement of non-degraded material. Injection volume: 10 μl; Column: Phenomenex Aqua C18 5 μM 150 mm×4.6 mm; Flow: 0.8 ml/min; 85% Mobile phase A: 4% formic acid in nanopure water; 15% Mobile phase B: acetonitrile; RT: 1.3 minutes; Stop time: 3.0 minutes. Mass Spectrometer: MS-03 LC/MSD Trap XCT Ultra.

[3] = in vivo; conditions: male, Sprague-Dawley, rat, iv, 3 mg/kg
Experimental: Male Sprague-Dawley rats (276-310 g) were dosed with peptide by i.v injection via the jugular vein. The calculated dose for each animal was 3 mg/kg of body weight and each isoflurane anaesthetised animal received dosing volumes of 0.1 ml/100 g of body weight of a 3 mg/ml solution. The remaining dosing solutions were subjected to a similar protocol as the solutions that were administered to the animals and were collected pre-labeled Maxymum Recovery (Axygen Scientific) low binding tubes, ready for quantification. Blood samples (0.2 ml) were collected just prior to dosing (pre-dose) and at various time points post-dosing according to the experimental schedule. Blood samples were collected from the jugular vein from the anaesthetized and transferred into 0.5 ml pre-labeled EDTA micro-centrifuge tubes and placed on ice. The tubes were then centrifuged for 5 mins at 3,000 RPM in a bench top microcentrifuge (4° C.). The plasma was transferred to pre-labeled 1.7 ml tubes, stored in a −80° C. freezer prior to analysis by LC-MS.
Analysis: Sample Preparation: 50 μl of plasma was added to 150 μl of precipitating solvent (75% acetonitrile/25% water+2% formic acid) and vortexed for 15 sec. The solution was centrifuged at 11,000 rpm at 4° C. for 5 mins. 100 μl of the supernatant was transferred to a HPLC vial for quantification. […]

[4] = rabbit blood; cited from earlier work

| half-life at 10 μg/ml [2] [h] | half-life [3] [h] | Compound | neuronal viability following glutamate excitotoxicity ([1]; 5 μM) [%] | in vivo half life [4] | neuronal viability following glutamate excitotoxicity ([1]; 1 μM) [%] |
| --- | --- | --- | --- | --- | --- |
| > 12 | 0.583 | CC[C@@H](C)[C@@H](NC(=O)[C@@H](CCC(=O)O)NC(=O)[C@@H](CO)NC(=O)[C@@H](CO)NC(=O)[C@@H](CO)NC(=O)[C@@H](CCCCN)NC(=O)[C@@H](CCCNC(=N)N)NC(=O)[C@@H](CCC(=O)O)NC(=O)[C@H](N)CCCNC(=N)N)C(=O)NCC(=O)NCC(=O)N[C@H](CO)C(=O)N[C@H](CCCNC(=N)N)C(=O)N[C@@H](C(=O)N[C@H](CO)C(=O)N[C@H](CCC(N)=O)C(=O)N[C@H](Cc1ccc(O)cc1)C(=O)N[C@H](C)C(=O)NCC(=O)N[C@H](CCCNC(=N)N)C(=O)N[C@H](CCCNC(=N)N)C(=O)N[C@H](CCCNC(=N)N)C(=O)N[C@H](CCC(N)=O)C(=O)N[C@H](CCCNC(=N)N)C(=O)N[C@H](CCCNC(=N)N)C(=O)N[C@H](CCCCN)C(=O)N[C@H](CCCCN)C(=O)N[C@H](CCCNC(=N)N)C(=O)NCC(=O)O)[C@H](C)CC [PYC35D-TAT] (H-[dR][dE][dR][dK][dS][dS][dS][dE][dI]GG[dS][dR][dI][dS][dQ][dY][dA]G[dR][dR][dR][dQ][dR][dR][dK][dK][dR]G-OH; N-terminus and C-terminus assumed) | 59 | – | – |
| – | – | tissue plasminogen activator [tPA] | – | a few minutes | – |
| > 12 | 1.67 | CC[C@@H](C)[C@@H](NC(=O)[C@@H](CCCCN)NC(=O)[C@H]1CCCN1)C(=O)N[C@H](CO)C(=O)N[C@H](CCC(N)=O)C(=O)N[C@H](Cc1ccc(O)cc1)C(=O)NCC(=O)N[C@H](CCC(N)=O)C(=O)N[C@H](CCCNC(=N)N)C(=O)N[C@H](CCCNC(=N)N)C(=O)N[C@H](CCCNC(=N)N)C(=O)NCC(=O)N[C@H](CCC(N)=O)C(=O)N[C@H](CC(C)C)C(=O)NCC(=O)NCC(=O)N[C@H](CCCNC(=N)N)C(=O)N[C@H](CCCNC(=N)N)C(=O)N[C@H](CCCNC(=N)N)C(=O)N[C@H](CCC(N)=O)C(=O)N[C@H](CCCNC(=N)N)C(=O)N[C@H](CCCNC(=N)N)C(=O)N[C@H](CCCCN)C(=O)N[C@H](CCCCN)C(=O)N[C@H](CCCNC(=N)N)C(=O)NCC(=O)O [PYC36D-TAT] (H-[dP][dK][dI][dS][dQ][dY]G[dQ][dR][dR][dR]G[dQ][dL]GG[dR][dR][dR][dQ][dR][dR][dK][dK][dR]G-OH; N-terminus and C-terminus assumed) | 82 | – | 44 |
